For 13 compounds, IC50 results are on record in patent US20260022142A1, “MACROCYCLIC IMMUNOMODULATORS” (Bristol-Myers Squibb Company, priority 2022, published 2026).

Each structure is given as a SMILES string. Numbered stars: 1 amine (or outer) side, 2 acyl side, 3 side chain; on linkers, the order of the positions; unused ones are H or OH. Bridge positions count the residues as written; N and C are the ends. Square brackets hold non-standard residues; d marks the D form. Peptide text beside a SMILES is read from it. * marks the point of attachment. ξ: configuration not given here. Bip = N[C@@H](Cc1ccc(-c2ccccc2)cc1)C(=O)O; Phe(3-Me) = Cc1cccc(C[C@H](N)C(=O)O)c1; γGlu = O=C(O)[C@H](CCC(=O)[*:2])N[*:1]; Cha = N[C@@H](CC1CCCCC1)C(=O)O; Thr(3ξ) = CC(O)[C@H](N)C(=O)O; Carboxymethyl = O=C(O)C*; Orn = NCCC[C@H](N)C(=O)O; Aun = NCCCCCCCCCCC(=O)O; Dab = NCC[C@H](N)C(=O)O; Dap = NC[C@H](N)C(=O)O; AEEA = NCCOCCOCC(=O)O

T1 sequence (Q15116 25-288): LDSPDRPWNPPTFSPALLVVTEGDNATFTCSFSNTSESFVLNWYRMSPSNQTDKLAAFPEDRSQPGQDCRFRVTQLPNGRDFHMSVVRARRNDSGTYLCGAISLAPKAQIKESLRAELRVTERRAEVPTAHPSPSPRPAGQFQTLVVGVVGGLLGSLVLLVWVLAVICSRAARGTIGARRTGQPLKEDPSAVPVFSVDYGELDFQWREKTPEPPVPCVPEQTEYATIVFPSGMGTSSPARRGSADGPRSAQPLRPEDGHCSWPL

The test addresses T1, PD-1/PD-L1 interaction (PE-labeled human PD-L1-Ig binding to Jurkat cell line over-expressing human PD-1) (Homo sapiens, UniProt Q15116).
T1 construct: expressed in transfected cells; host or cells: Jurkat
Kind of test: Jurkat-PD-1 Cell Binding High-Content Screening Assay (CBA). Type of test: cell-based. The settings on record: Jurkat cell line over-expressing human PD-1; PE-labeled PD-L1-Ig 20 nM final; read-out: Jurkat hPD1-PDL1 IC50. The method, boiled down: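 Human PD-L1-Ig carrying a covalent PE label on its Ig tag serves as the probe, applied at 20 nM final to compound-treated (2 h, 37° C) Jurkat-hPD-1 cells in medium with 10% fetal calf serum. After one hour, fixation and nuclear staining precede high-content image analysis.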
Usually IC50 stands for the concentration needed to halve the response being measured. As to `CC(C)C[C@H]1NC(=O)[C@H](CCCN)NC(=O)[C@H](C(C)C)NC(=O)[C@H](Cc2ccc(-c3ccccc3)cc2)NC(=O)[C@H](C(C)C)NC(=O)[C@H](Cc2c[nH]c3ccccc23)NC(=O)[C@H](CC(=O)O)NC(=O)[C@H](Cc2ccc(OCC(=O)O)cc2)NC(=O)[C@H](CN)NC(=O)CSC[C@@H](C(=O)N[C@@H](CCN)C(=O)NCCCCCCCCCCC(=O)O)NC(=O)[C@H](CN)NC(=O)[C@H](C(C)O)NC(=O)[C@H](CC2CCCCC2)NC(=O)[C@H](CCN)NC1=O` (stereo partly drawn) [Compound 3647] ({CH2CO}-[Dap]Y(Carboxymethyl)DWV[Bip]V[Orn][dL][Dab][Cha][Thr(3ξ)][Dap]C[Dab][Aun]-OH; thioether N-14), the IC50 is 27.7 nM.
As for `CC(C)C[C@H]1NC(=O)[C@H](CCCN)NC(=O)[C@H](C(C)C)NC(=O)[C@H](Cc2ccc(-c3ccccc3)cc2)NC(=O)[C@H](C(C)C)NC(=O)[C@H](Cc2c[nH]c3ccccc23)NC(=O)[C@H](CC(=O)O)NC(=O)[C@H](Cc2ccc(OCC(=O)O)cc2)NC(=O)[C@H](CN)NC(=O)CSC[C@@H](C(=O)N[C@@H](CCN)C(=O)NCCCCCCCCCCC(=O)O)NC(=O)[C@H](CCCCN)NC(=O)[C@H](C(C)O)NC(=O)[C@H](CC2CCCCC2)NC(=O)[C@H](CCN)NC1=O` (stereo partly drawn) [Compound 3648] ({CH2CO}-[Dap]Y(Carboxymethyl)DWV[Bip]V[Orn][dL][Dab][Cha][Thr(3ξ)]KC[Dab][Aun]-OH; thioether N-14), the figure is 21.5 nM.
As to `CC(C)C[C@H]1NC(=O)[C@H](CCCN)NC(=O)[C@H](C(C)C)NC(=O)[C@H](Cc2ccc(-c3ccccc3)cc2)NC(=O)[C@H](C(C)C)NC(=O)[C@H](Cc2c[nH]c3ccccc23)NC(=O)[C@H](CC(=O)O)NC(=O)[C@H](Cc2ccc(OCC(=O)O)cc2)NC(=O)[C@H](CN)NC(=O)CSC[C@@H](C(=O)N[C@@H](CCN)C(=O)NCCOCCOCC(=O)N[C@@H](CCC(=O)NCCCCCCCCCCC(=O)O)C(=O)O)NC(=O)[C@H](CN)NC(=O)[C@H](C(C)O)NC(=O)[C@H](CC2CCCCC2)NC(=O)[C@H](CCN)NC1=O` (stereo partly drawn) [Compound 3649] ({CH2CO}-[Dap]Y(Carboxymethyl)DWV[Bip]V[Orn][dL][Dab][Cha][Thr(3ξ)][Dap]C[Dab][AEEA][γGlu][Aun]-OH; thioether N-14), the IC50 worked out at 7.5 nM.
The result for `CC(C)C[C@H]1NC(=O)[C@H](CCCN)NC(=O)[C@H](C(C)C)NC(=O)[C@H](Cc2ccc(-c3ccccc3)cc2)NC(=O)[C@H](C(C)C)NC(=O)[C@H](Cc2c[nH]c3ccccc23)NC(=O)[C@H](CC(=O)O)NC(=O)[C@H](Cc2ccc(OCC(=O)O)cc2)NC(=O)[C@H](CN)NC(=O)CSC[C@@H](C(=O)N[C@@H](CCN)C(=O)NCCOCCOCC(=O)N[C@@H](CCC(=O)NCCCCCCCCCCC(=O)O)C(=O)O)NC(=O)[C@H](CCCCN)NC(=O)[C@H](C(C)O)NC(=O)[C@H](CC2CCCCC2)NC(=O)[C@H](CCN)NC1=O` (stereo partly drawn) [Compound 3650] ({CH2CO}-[Dap]Y(Carboxymethyl)DWV[Bip]V[Orn][dL][Dab][Cha][Thr(3ξ)]KC[Dab][AEEA][γGlu][Aun]-OH; thioether N-14) reads 17.5 nM; that for `CC(C)C[C@H]1NC(=O)[C@H](CCCN)NC(=O)[C@H](C(C)C)NC(=O)[C@H](Cc2ccc(-c3ccccc3)cc2)NC(=O)[C@H](C(C)C)NC(=O)[C@H](Cc2c[nH]c3ccccc23)NC(=O)[C@H](CC(=O)O)NC(=O)[C@H](Cc2ccc(OCC(=O)O)cc2)NC(=O)[C@H](CN)NC(=O)CSC[C@@H](C(=O)N[C@@H](CCN)C(=O)NCCCCCCCCCCC(=O)O)NC(=O)[C@H](CO)NC(=O)[C@H](C(C)O)NC(=O)[C@H](CC2CCCCC2)NC(=O)[C@H](CCN)NC1=O` (stereo partly drawn) [Compound 3651] ({CH2CO}-[Dap]Y(Carboxymethyl)DWV[Bip]V[Orn][dL][Dab][Cha][Thr(3ξ)]SC[Dab][Aun]-OH; thioether N-14), 24.1 nM; that for `CC(C)C[C@H]1NC(=O)[C@H](CCCN)NC(=O)[C@H](C(C)C)NC(=O)[C@H](Cc2ccc(-c3ccccc3)cc2)NC(=O)[C@H](C(C)C)NC(=O)[C@H](Cc2c[nH]c3ccccc23)NC(=O)[C@H](CC(=O)O)NC(=O)[C@H](Cc2ccc(OCC(=O)O)cc2)NC(=O)[C@H](CN)NC(=O)CSC[C@@H](C(=O)N[C@@H](CCN)C(=O)NCCCCCCCCCCC(=O)O)NC(=O)[C@H](Cc2cnc[nH]2)NC(=O)[C@H](C(C)O)NC(=O)[C@H](CC2CCCCC2)NC(=O)[C@H](CCN)NC1=O` (stereo partly drawn) [Compound 3652] ({CH2CO}-[Dap]Y(Carboxymethyl)DWV[Bip]V[Orn][dL][Dab][Cha][Thr(3ξ)]HC[Dab][Aun]-OH; thioether N-14), 22.1 nM.
The result for `CC(C)C[C@H]1NC(=O)[C@H](CCCN)NC(=O)[C@H](Cc2ccc(O)cc2)NC(=O)[C@H](Cc2ccc(-c3ccccc3)cc2)NC(=O)[C@H](C(C)C)NC(=O)[C@H](Cc2c[nH]c3ccccc23)NC(=O)[C@H](CC(=O)O)NC(=O)[C@H](Cc2ccc(OCC(=O)O)cc2)NC(=O)[C@H](CN)NC(=O)CSC[C@@H](C(=O)N[C@@H](CCN)C(=O)NCCCCCCCCCCC(=O)O)NC(=O)[C@H](CN)NC(=O)[C@H](C(C)O)NC(=O)[C@H](CC2CCCCC2)NC(=O)[C@H](CCN)NC1=O` (stereo partly drawn) [Compound 3654] ({CH2CO}-[Dap]Y(Carboxymethyl)DWV[Bip]Y[Orn][dL][Dab][Cha][Thr(3ξ)][Dap]C[Dab][Aun]-OH; thioether N-14) reads 45.1 nM; that for `CC(C)C[C@H]1NC(=O)[C@H](CCCN)NC(=O)[C@H](Cc2ccc(O)cc2)NC(=O)[C@H](Cc2ccc(-c3ccccc3)cc2)NC(=O)[C@H](C(C)C)NC(=O)[C@H](Cc2c[nH]c3ccccc23)NC(=O)[C@H](CC(=O)O)NC(=O)[C@H](Cc2ccc(OCC(=O)O)cc2)NC(=O)[C@H](CN)NC(=O)CSC[C@@H](C(=O)N[C@@H](CCN)C(=O)NCCCCCCCCCCC(=O)O)NC(=O)[C@H](CCCCN)NC(=O)[C@H](C(C)O)NC(=O)[C@H](CC2CCCCC2)NC(=O)[C@H](CCN)NC1=O` (stereo partly drawn) [Compound 3655] ({CH2CO}-[Dap]Y(Carboxymethyl)DWV[Bip]Y[Orn][dL][Dab][Cha][Thr(3ξ)]KC[Dab][Aun]-OH; thioether N-14), 61.8 nM.
As for `CC(C)C[C@H]1NC(=O)[C@H](CCCN)NC(=O)[C@H](Cc2ccc(O)cc2)NC(=O)[C@H](Cc2ccc(-c3ccccc3)cc2)NC(=O)[C@H](Cc2ccc(O)cc2)NC(=O)[C@H](Cc2c[nH]c3ccccc23)NC(=O)[C@H](CC(=O)O)NC(=O)[C@H](Cc2ccc(OCC(=O)O)cc2)NC(=O)[C@H](CN)NC(=O)CSC[C@@H](C(=O)N[C@@H](CCN)C(=O)NCCCCCCCCCCC(=O)O)NC(=O)[C@H](CN)NC(=O)[C@H](C(C)O)NC(=O)[C@H](CC2CCCCC2)NC(=O)[C@H](CCN)NC1=O` (stereo partly drawn) [Compound 3656] ({CH2CO}-[Dap]Y(Carboxymethyl)DWY[Bip]Y[Orn][dL][Dab][Cha][Thr(3ξ)][Dap]C[Dab][Aun]-OH; thioether N-14), the figure is 178 nM.
On to `CC(C)C[C@H]1NC(=O)[C@H](CCCN)NC(=O)[C@H](Cc2ccc(O)cc2)NC(=O)[C@H](Cc2ccc(-c3ccccc3)cc2)NC(=O)[C@H](Cc2ccc(O)cc2)NC(=O)[C@H](Cc2c[nH]c3ccccc23)NC(=O)[C@H](CC(=O)O)NC(=O)[C@H](Cc2ccc(OCC(=O)O)cc2)NC(=O)[C@H](CN)NC(=O)CSC[C@@H](C(=O)N[C@@H](CCN)C(=O)NCCCCCCCCCCC(=O)O)NC(=O)[C@H](CCCCN)NC(=O)[C@H](C(C)O)NC(=O)[C@H](CC2CCCCC2)NC(=O)[C@H](CCN)NC1=O` (stereo partly drawn) [Compound 3657] ({CH2CO}-[Dap]Y(Carboxymethyl)DWY[Bip]Y[Orn][dL][Dab][Cha][Thr(3ξ)]KC[Dab][Aun]-OH; thioether N-14), for which the IC50 is 121 nM.
As for `CC(C)C[C@@H]1NC(=O)[C@H](Cc2c[nH]c3ccccc23)NC(=O)[C@H](CC(=O)O)NC(=O)[C@H](Cc2ccc(OCC(=O)O)cc2)NC(=O)[C@H](CN)NC(=O)CSC[C@@H](C(=O)N[C@@H](CCN)C(=O)NCCCCCCCCCCC(=O)O)NC(=O)[C@H](CN)NC(=O)[C@H](C(C)O)NC(=O)[C@H](CC2CCCCC2)NC(=O)[C@H](CCN)NC(=O)[C@@H](CC(C)C)NC(=O)[C@H](CCCN)NC(=O)[C@H](Cc2ccc(O)cc2)NC(=O)[C@H](Cc2ccc(-c3ccccc3)cc2)NC1=O` (stereo partly drawn) [Compound 3658] ({CH2CO}-[Dap]Y(Carboxymethyl)DWL[Bip]Y[Orn][dL][Dab][Cha][Thr(3ξ)][Dap]C[Dab][Aun]-OH; thioether N-14), the figure is 88 nM.
As for `Cc1cccc(C[C@@H]2NC(=O)[C@H](CC(=O)O)NC(=O)[C@H](Cc3ccc(OCC(=O)O)cc3)NC(=O)[C@H](CN)NC(=O)CSC[C@@H](C(=O)N[C@H](CC(N)=O)C(=O)NCCCCCCCCCCC(=O)O)NC(=O)[C@H](CO)NC(=O)[C@H](C(C)O)NC(=O)[C@H](CC3CCCCC3)NC(=O)[C@H](CCN)NC(=O)[C@@H](CC(C)C)NC(=O)[C@H](CCCN)NC(=O)[C@H](Cc3ccc(OCC(=O)O)cc3)NC(=O)[C@H](Cc3ccc(-c4ccccc4)cc3)NC(=O)[C@H](Cc3ccc(OCC(=O)O)cc3)NC2=O)c1` (stereo partly drawn) [Compound 3659] ({CH2CO}-[Dap]Y(Carboxymethyl)D[Phe(3-Me)]Y(Carboxymethyl)[Bip]Y(Carboxymethyl)[Orn][dL][Dab][Cha][Thr(3ξ)]SC[dN][Aun]-OH; thioether N-14), the figure is 47.6 nM.
As for `Cc1cccc(C[C@@H]2NC(=O)[C@H](CC(=O)O)NC(=O)[C@H](Cc3ccc(OCC(=O)O)cc3)NC(=O)[C@H](CCN)NC(=O)CSC[C@@H](C(=O)N[C@H](CC(N)=O)C(=O)NCCCCCCCCCCC(=O)O)NC(=O)[C@H](CO)NC(=O)[C@H](C(C)O)NC(=O)[C@H](CC3CCCCC3)NC(=O)[C@H](CCN)NC(=O)[C@@H](CC(C)C)NC(=O)[C@H](CCCN)NC(=O)[C@H](Cc3ccc(OCC(=O)O)cc3)NC(=O)[C@H](Cc3ccc(-c4ccccc4)cc3)NC(=O)[C@H](Cc3ccc(OCC(=O)O)cc3)NC2=O)c1` (stereo partly drawn) [Compound 3660] ({CH2CO}-[Dab]Y(Carboxymethyl)D[Phe(3-Me)]Y(Carboxymethyl)[Bip]Y(Carboxymethyl)[Orn][dL][Dab][Cha][Thr(3ξ)]SC[dN][Aun]-OH; thioether N-14), the figure is 67.9 nM.
